Reference: patent US8796470B2 (AbbVie Inc., priority 2010, dated 2014)
pIC50: −log10 of the molar value.

Molecular target: T1, human Cav2.2 (Homo sapiens, UniProt Q00975)
T1 construct: IMR32 cells endogenously expressing human Cav2.2; endogenous in cells; host or cells: IMR32 cells (human neuroblastoma)
Assay: Assessment of calcium channel activity using FLIPR (Ca2+ influx in IMR32 cells)
Format: cell-based
Conditions: IMR32 cells endogenously expressing human Cav2.2, Calcium 4 dye, 60 minute pre-incubation, 2 μM nifedipine, depolarized with 80 mM KCl, 5 mM CaCl2
Protocol: (i) In Vitro Methods—Assessment of Calcium Channel Activity Using FLIPR:
IMR32 cells endogenously expressing human Cav2.2 were assayed for Ca^2+ influx using a no-wash calcium indicator dye (Calcium 4 dye: Molecular Probes) and FLIPR technology (Lubin, M. L.; Reitz, T. L.; Todd, M. J.; Flores, C. M.; Qin, N.; Xin, H. Assay and Drug Development Technologies 2006, 4(6), 689-694.). The IMR32 cells were maintained in MEM media containing 10% (v/v) FBS, 1% (v/v) antibiotic/antimitotic, 1% (v/v) sodium pyruvate and 1% (v/v) MEM NEAA. Following dissociation in 0.05% (v/v) trypsin/EDTA, cells were seeded into black 1×96-well plates (Corning Cellbind) at a density of 1−1.2×10^5 cells/well and incubated in the maintenance media above for 48 hours at 37° C. Immediately prior to performing the assay the media was removed and cells were loaded for 1.5 hours with 1×Calcium 4 dye prepared in HBSS (137 mM NaCl, 5.4 mM KCl, 0.25 mM Na2HPO4, 0.44 mM KH2PO4, 1.3 mM CaCl2, 1 mM MgSO4, 4.2 mM NaHCO3) containing HEPES pH 7.4 at room temperature. After dye loading and a subsequent 60 minute pre-incubation with compounds (full log dilutions from 10 μM to 0.1 nM) in the presence of 1.3 mM CaCl2 and 2 μM nifedipine to block endogenous L-type channels, the external Ca^2+ concentration was increased to 5 mM CaCl2 and the cells concomitantly depolarized with 80 mM KCl to assay channel activity. To determine the IC50 values, the percent inhibition of the compound at each concentration was determined relative to the activity in the absence of inhibitor, and data was fitted using non-linear regression sigmoidal dose response curve analysis with GraphPad Prism®.

T1 sequence (Q00975 whole entry): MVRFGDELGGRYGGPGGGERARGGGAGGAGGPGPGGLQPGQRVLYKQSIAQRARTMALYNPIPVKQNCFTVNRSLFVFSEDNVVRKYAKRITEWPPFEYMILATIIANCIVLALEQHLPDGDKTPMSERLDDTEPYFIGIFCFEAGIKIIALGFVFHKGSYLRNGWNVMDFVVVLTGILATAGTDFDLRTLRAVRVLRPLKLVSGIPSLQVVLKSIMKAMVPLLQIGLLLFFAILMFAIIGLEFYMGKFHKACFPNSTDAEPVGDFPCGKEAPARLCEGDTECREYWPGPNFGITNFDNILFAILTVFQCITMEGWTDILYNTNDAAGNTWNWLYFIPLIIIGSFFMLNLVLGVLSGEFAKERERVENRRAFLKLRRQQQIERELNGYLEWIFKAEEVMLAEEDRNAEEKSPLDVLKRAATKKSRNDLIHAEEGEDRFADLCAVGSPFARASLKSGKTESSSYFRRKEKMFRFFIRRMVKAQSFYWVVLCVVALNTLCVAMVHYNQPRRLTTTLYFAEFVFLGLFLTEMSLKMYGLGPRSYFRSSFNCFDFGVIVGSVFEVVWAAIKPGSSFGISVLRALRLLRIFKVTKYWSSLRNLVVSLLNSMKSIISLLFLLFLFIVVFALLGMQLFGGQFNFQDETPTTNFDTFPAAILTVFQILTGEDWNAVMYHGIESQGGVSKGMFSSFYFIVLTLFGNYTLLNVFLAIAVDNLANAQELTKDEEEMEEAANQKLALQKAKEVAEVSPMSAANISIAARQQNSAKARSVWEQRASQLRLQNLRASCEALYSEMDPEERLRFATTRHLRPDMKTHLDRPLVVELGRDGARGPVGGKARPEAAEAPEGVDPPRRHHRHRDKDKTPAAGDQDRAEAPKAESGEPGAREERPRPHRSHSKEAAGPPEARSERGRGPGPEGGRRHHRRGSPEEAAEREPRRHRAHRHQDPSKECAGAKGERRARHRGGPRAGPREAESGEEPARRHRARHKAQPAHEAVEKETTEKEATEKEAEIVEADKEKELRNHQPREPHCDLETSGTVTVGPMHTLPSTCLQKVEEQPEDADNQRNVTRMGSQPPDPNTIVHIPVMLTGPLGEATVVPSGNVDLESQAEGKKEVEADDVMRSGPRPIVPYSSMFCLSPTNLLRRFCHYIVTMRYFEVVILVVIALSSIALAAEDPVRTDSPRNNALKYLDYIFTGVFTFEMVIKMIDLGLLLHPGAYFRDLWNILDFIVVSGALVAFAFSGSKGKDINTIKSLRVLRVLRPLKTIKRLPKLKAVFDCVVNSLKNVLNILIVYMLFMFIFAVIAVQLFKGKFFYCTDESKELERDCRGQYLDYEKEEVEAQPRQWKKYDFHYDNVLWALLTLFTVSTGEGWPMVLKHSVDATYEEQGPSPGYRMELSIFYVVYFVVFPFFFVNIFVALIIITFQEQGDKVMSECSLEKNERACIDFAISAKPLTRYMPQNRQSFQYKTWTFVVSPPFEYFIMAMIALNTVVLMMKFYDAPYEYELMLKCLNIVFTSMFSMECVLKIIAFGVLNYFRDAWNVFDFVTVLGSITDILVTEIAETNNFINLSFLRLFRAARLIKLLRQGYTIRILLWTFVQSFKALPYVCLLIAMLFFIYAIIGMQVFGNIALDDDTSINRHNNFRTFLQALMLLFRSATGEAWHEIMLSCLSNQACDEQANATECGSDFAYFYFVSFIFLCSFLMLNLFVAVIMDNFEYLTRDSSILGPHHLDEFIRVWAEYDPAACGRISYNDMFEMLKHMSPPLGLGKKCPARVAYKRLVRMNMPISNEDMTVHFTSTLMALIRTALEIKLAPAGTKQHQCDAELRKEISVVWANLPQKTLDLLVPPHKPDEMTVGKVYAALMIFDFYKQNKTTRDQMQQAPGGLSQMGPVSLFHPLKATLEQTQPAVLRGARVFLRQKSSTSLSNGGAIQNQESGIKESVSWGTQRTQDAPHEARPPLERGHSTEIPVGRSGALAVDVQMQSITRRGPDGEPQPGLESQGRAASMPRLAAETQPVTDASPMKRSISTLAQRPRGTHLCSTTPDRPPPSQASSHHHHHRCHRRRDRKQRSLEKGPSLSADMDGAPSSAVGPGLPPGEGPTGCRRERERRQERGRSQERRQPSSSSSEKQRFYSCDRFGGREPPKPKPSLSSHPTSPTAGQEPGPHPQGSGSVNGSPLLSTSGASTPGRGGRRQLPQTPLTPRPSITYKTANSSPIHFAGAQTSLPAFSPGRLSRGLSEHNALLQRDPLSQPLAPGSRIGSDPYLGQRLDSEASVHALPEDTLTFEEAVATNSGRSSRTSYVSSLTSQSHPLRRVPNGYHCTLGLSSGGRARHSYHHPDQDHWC
T1 sequence (P54289 25-956 partner limits assumed): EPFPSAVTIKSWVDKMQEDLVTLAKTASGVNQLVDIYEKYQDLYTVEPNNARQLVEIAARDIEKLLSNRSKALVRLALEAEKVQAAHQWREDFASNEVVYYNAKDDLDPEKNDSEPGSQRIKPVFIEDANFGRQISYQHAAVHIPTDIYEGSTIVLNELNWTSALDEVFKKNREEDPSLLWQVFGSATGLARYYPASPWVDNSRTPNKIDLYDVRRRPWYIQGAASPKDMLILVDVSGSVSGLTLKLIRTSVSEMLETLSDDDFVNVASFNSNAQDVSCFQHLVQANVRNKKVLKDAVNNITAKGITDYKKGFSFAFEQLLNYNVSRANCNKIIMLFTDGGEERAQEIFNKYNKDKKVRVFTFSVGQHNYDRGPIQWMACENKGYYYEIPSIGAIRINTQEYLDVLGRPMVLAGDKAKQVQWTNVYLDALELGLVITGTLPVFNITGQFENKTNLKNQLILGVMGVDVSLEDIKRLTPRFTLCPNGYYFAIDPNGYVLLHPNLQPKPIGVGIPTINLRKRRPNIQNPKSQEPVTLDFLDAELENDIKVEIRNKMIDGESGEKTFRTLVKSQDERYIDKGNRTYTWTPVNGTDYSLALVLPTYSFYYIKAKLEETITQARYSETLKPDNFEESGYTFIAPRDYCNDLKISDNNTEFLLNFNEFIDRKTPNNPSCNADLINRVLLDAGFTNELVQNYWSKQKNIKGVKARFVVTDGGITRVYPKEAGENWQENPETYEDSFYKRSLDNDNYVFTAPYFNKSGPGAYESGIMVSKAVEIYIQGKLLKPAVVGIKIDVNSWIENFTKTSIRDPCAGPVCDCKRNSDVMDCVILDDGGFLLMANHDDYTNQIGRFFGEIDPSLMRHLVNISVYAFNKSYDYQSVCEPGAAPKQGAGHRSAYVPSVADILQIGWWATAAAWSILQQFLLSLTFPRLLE
T1 sequence (P54289 957-1103 partner limits assumed): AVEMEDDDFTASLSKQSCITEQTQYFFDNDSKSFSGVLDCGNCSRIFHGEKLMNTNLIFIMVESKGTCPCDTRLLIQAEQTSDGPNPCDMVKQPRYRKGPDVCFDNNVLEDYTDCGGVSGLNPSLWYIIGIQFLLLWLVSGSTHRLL
T1 sequence (P54284 whole entry partner): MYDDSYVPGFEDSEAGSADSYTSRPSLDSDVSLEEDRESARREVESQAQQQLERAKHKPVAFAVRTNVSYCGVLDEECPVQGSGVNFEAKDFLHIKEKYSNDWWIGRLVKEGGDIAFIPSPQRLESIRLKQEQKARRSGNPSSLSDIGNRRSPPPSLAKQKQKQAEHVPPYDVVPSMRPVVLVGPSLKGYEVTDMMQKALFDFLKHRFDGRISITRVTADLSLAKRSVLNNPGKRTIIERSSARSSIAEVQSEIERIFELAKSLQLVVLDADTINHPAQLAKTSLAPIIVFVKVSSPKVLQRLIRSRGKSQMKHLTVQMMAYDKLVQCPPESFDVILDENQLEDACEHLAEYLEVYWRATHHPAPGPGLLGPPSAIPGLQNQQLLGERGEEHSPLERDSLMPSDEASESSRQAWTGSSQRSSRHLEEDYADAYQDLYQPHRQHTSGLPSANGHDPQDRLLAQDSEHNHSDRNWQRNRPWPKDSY

Row | Molecule | pIC50
1 | 5-methyl-1-{(3aR,4S,6aS)-2-[6-(trifluoromethyl)pyridin-2-yl]octahydrocyclopenta[c]pyrrol-4-yl}-1H-benzimidazole and 6-methyl-1-{(3aR,4S,6aS)-2-[6-(trifluoromethyl)pyridin-2-yl]octahydrocyclopenta[c]pyrrol-4-yl}-1H-benzimidazole [Example 59] | 5.55
2 | C=C1CC[C@@H]2CN(Cc3ccccc3)C[C@H]12 [Example 1, (3aS,6aS)-2-benzyl-4-methyleneoctahydrocyclopenta[c]pyrrole] | < 4.52
3 | C[C@@]1(NC(=O)c2ccccc2)CC[C@@H]2CN(Cc3ccccc3)C[C@@H]21 [Example 2, N-[(3aR,4R,6aS)-2-benzyl-4-methyloctahydrocyclopenta[c]pyrrol-4-yl]benzamide] | 4.94
4 | C[C@]1(NC(=O)c2ccccc2)CC[C@@H]2CN(Cc3ccccc3)C[C@@H]21 [Example 3, N-[(3aR,4S,6aS)-2-benzyl-4-methyloctahydrocyclopenta[c]pyrrol-4-yl]benzamide] | 4.92
5 | CC(=O)N[C@]1(C)CC[C@@H]2CN(Cc3ccccc3)C[C@@H]21 [Example 4, N-[(3aR,4R,6aS)-2-benzyl-4-methyloctahydrocyclopenta[c]pyrrol-4-yl]acetamide] | < 4.52
6 | CC(=O)N[C@@]1(C)CC[C@@H]2CN(Cc3ccccc3)C[C@@H]21 [Example 5, N-[(3aR,4S,6aS)-2-benzyl-4-methyloctahydrocyclopenta[c]pyrrol-4-yl]acetamide] | < 4.52
7 | C[C@@]1(NC(=O)c2cccc(F)c2)CC[C@@H]2CN(Cc3ccccc3)C[C@@H]21 [Example 6, N-[(3aR,4R,6aS)-2-benzyl-4-methyloctahydrocyclopenta[c]pyrrol-4-yl]-3-fluorobenzamide] | 4.75
8 | C[C@]1(NC(=O)c2cccc(F)c2)CC[C@@H]2CN(Cc3ccccc3)C[C@@H]21 [Example 7, N-[(3aR,4S,6aS)-2-benzyl-4-methyloctahydrocyclopenta[c]pyrrol-4-yl]-3-fluorobenzamide] | 5.29
9 | C[C@@]1(NC(=O)c2ccccc2)CC[C@@H]2CNC[C@@H]21 [Example 8, N-[(3aR,4R,6aS)-4-methyloctahydrocyclopenta[c]pyrrol-4-yl]benzamide] | 4.58
10 | C[C@]1(NC(=O)c2ccccc2)CC[C@@H]2CNC[C@@H]21 [Example 9, N-[(3aR,4S,6aS)-4-methyloctahydrocyclopenta[c]pyrrol-4-yl]benzamide] | < 4.52
11 | C[C@@]1(NC(=O)c2ccccc2)CC[C@@H]2CN(c3cccc(C(F)(F)F)n3)C[C@@H]21 [Example 14, N-{(3aR,4R,6aS)-4-methyl-2-[6-(trifluoromethyl)pyridin-2-yl]octahydrocyclopenta[c]pyrrol-4-yl}benzamide] | 5.67
12 | C[C@]1(NC(=O)c2ccccc2)CC[C@@H]2CN(c3cccc(C(F)(F)F)n3)C[C@@H]21 [Example 15, N-{(3aR,4S,6aS)-4-methyl-2-[6-(trifluoromethyl)pyridin-2-yl]octahydrocyclopenta[c]pyrrol-4-yl}benzamide] | 5.60
13 | CC(=O)N[C@]1(C)CC[C@@H]2CN(c3cccc(C(F)(F)F)n3)C[C@@H]21 [Example 16, N-{(3aR,4R,6aS)-4-methyl-2-[6-(trifluoromethyl)pyridin-2-yl]octahydrocyclopenta[c]pyrrol-4-yl}acetamide] | 5.19
14 | CC(=O)N[C@@]1(C)CC[C@@H]2CN(c3cccc(C(F)(F)F)n3)C[C@@H]21 [Example 17, N-{(3aR,4S,6aS)-4-methyl-2-[6-(trifluoromethyl)pyridin-2-yl]octahydrocyclopenta[c]pyrrol-4-yl}acetamide] | 5.49
15 | C[C@@]1(NC(=O)c2cccc(F)c2)CC[C@@H]2CN(c3cccc(C(F)(F)F)n3)C[C@@H]21 [Example 18, 3-fluoro-N-{(3aR,4R,6aS)-4-methyl-2-[6-(trifluoromethyl)pyridin-2-yl]octahydrocyclopenta[c]pyrrol-4-yl}benzamide] | 5.82
16 | C[C@]1(NC(=O)c2cccc(F)c2)CC[C@@H]2CN(c3cccc(C(F)(F)F)n3)C[C@@H]21 [Example 19, 3-fluoro-N-{(3aR,4S,6aS)-4-methyl-2-[6-(trifluoromethyl)pyridin-2-yl]octahydrocyclopenta[c]pyrrol-4-yl}benzamide] | 5.74

Row | Molecule | pIC50
17 | C[C@]1(NCc2ccccc2)CC[C@@H]2CN(c3cccc(C(F)(F)F)n3)C[C@@H]21 [Example 20, (3aR,4S,6aS)—N-benzyl-4-methyl-2-[6-(trifluoromethyl)pyridin-2-yl]octahydrocyclopenta[c]pyrrol-4-amine] | 6.42
18 | C[C@@]1(NCc2ccccc2)CC[C@@H]2CN(c3cccc(C(F)(F)F)n3)C[C@@H]21 [Example 21, (3aR,4R,6aS)—N-benzyl-4-methyl-2-[6-(trifluoromethyl)pyridin-2-yl]octahydrocyclopenta[c]pyrrol-4-amine] | 5.99
19 | CCN[C@]1(C)CC[C@@H]2CN(c3cccc(C(F)(F)F)n3)C[C@@H]21 [Example 22, (3aR,4R,6aS)—N-ethyl-4-methyl-2-[6-(trifluoromethyl)pyridin-2-yl]octahydrocyclopenta[c]pyrrol-4-amine] | 5.23
20 | CCN[C@@]1(C)CC[C@@H]2CN(c3cccc(C(F)(F)F)n3)C[C@@H]21 [Example 23, (3aR,4S,6aS)—N-ethyl-4-methyl-2-[6-(trifluoromethyl)pyridin-2-yl]octahydrocyclopenta[c]pyrrol-4-amine] | 5.75
21 | C[C@@]1(NCc2cccc(F)c2)CC[C@@H]2CN(c3cccc(C(F)(F)F)n3)C[C@@H]21 [Example 24, (3aR,4R,6aS)—N-(3-fluorobenzyl)-4-methyl-2-[6-(trifluoromethyl)pyridin-2-yl]octahydrocyclopenta[c]pyrrol-4-amine] | 6.48
22 | C[C@]1(NCc2cccc(F)c2)CC[C@@H]2CN(c3cccc(C(F)(F)F)n3)C[C@@H]21 [Example 25, (3aR,4S,6aS)—N-(3-fluorobenzyl)-4-methyl-2-[6-(trifluoromethyl)pyridin-2-yl]octahydrocyclopenta[c]pyrrol-4-amine] | 6.74
23 | C[C@@]1(N)CC[C@@H]2CN(c3cccc(C(F)(F)F)n3)C[C@@H]21 [Example 26, (3aR,4R,6aS)-4-methyl-2-[6-(trifluoromethyl)pyridin-2-yl]octahydrocyclopenta[c]pyrrol-4-amine] | 5.44
24 | C[C@]1(N)CC[C@@H]2CN(c3cccc(C(F)(F)F)n3)C[C@@H]21 [Example 27, (3aR,4S,6aS)-4-methyl-2-[6-(trifluoromethyl)pyridin-2-yl]octahydrocyclopenta[c]pyrrol-4-amine] | 5.74
25 | O[C@@H]1CC[C@@H]2CN(c3cccc(C(F)(F)F)n3)C[C@@H]21 [Example 30, (3aR,4R,6aS)-2-[6-(trifluoromethyl)pyridin-2-yl]octahydrocyclopenta[c]pyrrol-4-ol] | 4.80
26 | O[C@H]1CC[C@@H]2CN(c3cccc(C(F)(F)F)n3)C[C@@H]21 [Example 31, (3aR,4S,6aS)-2-[6-(trifluoromethyl)pyridin-2-yl]octahydrocyclopenta[c]pyrrol-4-ol] | 5.02
27 | O=C1CC[C@@H]2CN(c3cccc(C(F)(F)F)n3)C[C@H]12 [Example 32, (3aR,6aS)-2-[6-(trifluoromethyl)pyridin-2-yl]hexahydrocyclopenta[c]pyrrol-4(1H)-one] | 4.67
28 | C[C@@]1(O)CC[C@@H]2CN(c3cccc(C(F)(F)F)n3)C[C@@H]21 [Example 33, (3aR,4R,6aS)-4-methyl-2-[6-(trifluoromethyl)pyridin-2-yl]octahydrocyclopenta[c]pyrrol-4-ol] | 5.08
29 | CC(C)[C@@]1(O)CC[C@@H]2CN(c3cccc(C(F)(F)F)n3)C[C@@H]21 [Example 34, (3aR,4S,6aS)-4-isopropyl-2-[6-(trifluoromethyl)pyridin-2-yl]octahydrocyclopenta[c]pyrrol-4-ol] | 5.52
30 | O[C@]1(c2ccccc2)CC[C@@H]2CN(c3cccc(C(F)(F)F)n3)C[C@@H]21 [Example 35, (3aR,4R,6aS)-4-phenyl-2-[6-(trifluoromethyl)pyridin-2-yl]octahydrocyclopenta[c]pyrrol-4-ol] | 5.54
31 | O[C@]1(c2cccc(F)c2)CC[C@@H]2CN(c3cccc(C(F)(F)F)n3)C[C@@H]21 [Example 36, (3aR,4R,6aS)-4-(3-fluorophenyl)-2-[6-(trifluoromethyl)pyridin-2-yl]octahydrocyclopenta[c]pyrrol-4-ol] | 5.21
32 | O[C@]1(Cc2ccc(F)c(F)c2)CC[C@@H]2CN(c3cccc(C(F)(F)F)n3)C[C@@H]21 [Example 37, (3aR,4S,6aS)-4-(3,4-difluorobenzyl)-2-[6-(trifluoromethyl)pyridin-2-yl]octahydrocyclopenta[c]pyrrol-4-ol] | 5.43
